We go through 12 compounds from patent US5925664A, “Method for treating ocular hypertension and glaucoma” (Sankyo Company, Limited, priority 1994, dated 1999).

The test system of experiment [1] is ocular hypertension model. Kind of experiment: Ocular tension lowering effect in rabbit ocular hypertension model (eye drops). The experiment is classed as in vivo, New Zealand white rabbits. Conditions: 50 μl by dropping; for AUC (area between the ocular tension curves of control group and drug application group): over 2 hours; for Maximum value of the lowered ocular tension: over 2 hours at intervals of 30 minutes. As for the experimental part: New Zealand white rabbits each weighing 2 to 3 kg were used.
According to the method reported by Kurihara et al. [Ophthalmologic Pharmacology 4, 62-64, (1990)], an ocular hypertension model was prepared to examine the ocular tension lowering effect of the test compounds. After general anaesthesia with urethane, the ocular tension of the test rabbit was determined by use of a tonometer (Alcon Applanation Pneumatonography).
After a local anaesthetic was applied to the rabbit eye by dropping, 0.1 ml of 5% sodium chloride solution was injected into the vitreous body through a 30-gauge injection needle. At the time, 30 minutes after injection, when ocular hypertension was confirmed, 50 μl of a sample solution was applied by dropping. Then, the ocular tension was determined over 2 hours at intervals of 30 minutes.
The area (AUC) between the ocular tension curve obtained from the control group (without drug application) and that obtained from the drug application group, and the maximum value of the lowered ocular tension were calculated to regard as the indices of ocular tension lowering effect.

For experiment [2] the following is noted: eye application; cited from earlier work.

The structures appear in SMILES notation.

`CCCc1nc(C(C)O)c(C(=O)O)n1Cc1ccc(-c2ccccc2-c2nn[nH]n2)cc1` (stereo not drawn) [Compound G]: in experiment [1] (applied concentration 1.0%), the “AUC (area between the ocular tension curves of control group and drug application group)” value (“AUC” below) is 5.45 mmHg · hr; the “Maximum value of the lowered ocular tension” value worked out at 8.6 mmHg.
As for `CCCc1nc(CC)c(C(=O)O)n1Cc1ccc(-c2ccccc2-c2nn[nH]n2)cc1` [Compound D], in experiment [1] (applied concentration 0.2%), the “AUC” value was 6.21 mmHg · hr; the “Maximum value of the lowered ocular tension” value came out at 6.4 mmHg.
On to `CCc1nc2cccc(C(=O)O)c2n1Cc1ccc(-c2ccccc2C(=O)C(=O)O)cc1` [Compound I], for which, in experiment [1] (applied concentration 1.0%), the “AUC” value turned out to be 5.33 mmHg · hr; the “Maximum value of the lowered ocular tension” value came to 7.3 mmHg.
Take `CCCc1nc(C(C)(C)O)c(C(=O)O)n1Cc1ccc(-c2ccccc2C(=O)C(=O)O)cc1` [Compound H]: in experiment [1] (applied concentration 1.0%), the “AUC” value was found to be 5.58 mmHg · hr; the “Maximum value of the lowered ocular tension” value was 8.6 mmHg.
Take `CCCCc1nc(C(C)(C)O)c(C(=O)O)n1Cc1ccc(-c2ccccc2C(=O)O)cc1` [Compound E]: in experiment [1] (applied concentration 1.0%), the “AUC” value turned out to be 4.90 mmHg · hr; the “Maximum value of the lowered ocular tension” value is 7.6 mmHg.
Regarding `CCCCC(=O)N(Cc1ccc(-c2ccccc2-c2nnn[nH]2)cc1)[C@H](C(=O)O)C(C)C` [CGP 48933], the “ocular tension lowering activity” value in experiment [2] was “showed ocular tension lowering activity”.
On to `CCCc1nc(C(C)(C)O)c(C(=O)O)n1Cc1ccc(-c2nn[nH]n2)cc1` [Compound F], for which, in experiment [1] (applied concentration 1.0%), the “AUC” value came out at 4.93 mmHg · hr; the “Maximum value of the lowered ocular tension” value is on record as 4.7 mmHg.
On to `CCCc1nc(C(C)(C)O)c(C(=O)O)n1Cc1ccc(-c2ccccc2C(=O)O)cc1` [Compound B], for which, in experiment [1] (applied concentration 1.0%), the “AUC” value is 3.21 mmHg · hr; the “Maximum value of the lowered ocular tension” value was 2.6 mmHg.
Regarding `CCCc1nc(C(C)(C)O)c(C(=O)O)n1Cc1ccc(-c2ccccc2-c2nn[nH]n2)cc1` [Compound A], in experiment [1] (applied concentration 1.0%), the “AUC” value is reported as 11.18 mmHg · hr; the “Maximum value of the lowered ocular tension” value was found to be 9.8 mmHg.
Turning to `CCCCc1nc(Cl)c(CO)n1Cc1ccc(-c2ccccc2-c2nnn[nH]2)cc1` [DUP 753, reference compound], in experiment [1] (applied concentration 1.0%), the “AUC” value is given as 0.28 mmHg · hr; the “Maximum value of the lowered ocular tension” value is on record as 1.3 mmHg. Also, in experiment [1] (applied concentration 3.0%), the “AUC” value came out at 2.38 mmHg · hr; the “Maximum value of the lowered ocular tension” value was determined as 3.5 mmHg.
In the case of `CCCCC(=O)N(Cc1ccc(-c2ccccc2-c2nnn[nH]2)cc1)CC1(C(=O)O)CCCC1` [CGP 49870], the “ocular tension lowering activity” value in experiment [2] is “showed ocular tension lowering activity”.
With `CCCc1nc(C(C)C)c(C(=O)O)n1Cc1ccc(-c2ccccc2-c2nn[nH]n2)cc1` [Compound C], in experiment [1] (applied concentration 1.0%), the “AUC” value stood at 3.98 mmHg · hr; the “Maximum value of the lowered ocular tension” value came to 2.7 mmHg.
